Assays:
[1] = system: H1N1 A/California/07/2009; assay: Hemagglutination inhibition titers after influenza vaccination, A/H1N1 vaccine strain; type: in vivo, human; details: for HI GMT ratio (CV %) A/H1N1: GMT at week 4 post vaccination/GMT at baseline
Description: (§1) The trial was observer-blind because the placebo in the RAD001 0.5 mg daily and 20 mg weekly cohorts differed slightly from the RAD001 tablets in those cohorts. […] The treatment duration for all cohorts was 6 weeks during which time subjects underwent safety evaluations in the clinic every 2 weeks. After subjects had been dosed for 4 weeks, RAD001 steady state levels were measured pre-dose and at one hour post dose. After completing the 6 week course of study drug, subjects were given a 2 week drug free break to reverse any possible RAD001-induced immunosuppression, and then were given a 2012 seasonal influenza vaccination (Agrippal®, Novartis Vaccines and Diagnostics, Siena, Italy) containing the strains H1N1 A/California/07/2009, H3N2 A/Victoria/210/2009, B/Brisbane/60/2008. Four weeks after influenza vaccination, subjects had serum collected for influenza titer measurements. Antibody titers to the 3 influenza vaccine strains as well as to 2 heterologous strains (A/H1N1 strain A/New Jersy/8/76 and A/H3N2 strain A/Victoria/361/11) were measured by standard hemagglutination inhibition assay (Kendal, A P et al. (1982) Concepts and procedures for laboratory-based influenza surveillance. Atlanta: Centers for Disease Control and Prevention B17-B35). Levels of IgG and IgM specific for the A/H1N1/California/07/2009 were measured in serum samples taken before and 4 weeks after influenza vaccination as described previously (Spensieri, F. et al. (2013) Proc. Natl. Acad. Sci. USA 110:14330-14335). Results were expressed as fluorescence intensity.
(§2) The primary analysis of geometric mean titer ratios was done using a normal Bayesian regression model with non-informative priors. This model was fitted to each antibody titer on the log scale. The primary outcome in each model was the Day 84 measurement. The Day 63 measurement was included in the outcome vector. The model fitted using SAS 9.2 proc mixed with the prior statement. The covariance structure of the matrix was considered as unstructured (option type=UN). A flat prior was used. For the secondary analysis of seroconversion rates, logistic regression was used.
(§3) The ability of RAD001 to improve immune function in elderly volunteers was evaluated by measuring the serologic response to the 2012 seasonal influenza vaccine. The hemagglutination inhibition (HI) geometric mean titers (GMT) to each of the 3 influenza vaccine strains at baseline and 4 weeks after influenza vaccination are provided in Table 6. The primary analysis variable was the HI GMT ratio (4 weeks post vaccination/baseline). […] This endpoint was chosen because a 1.2-fold increase in the influenza GMT ratio induced by the MF-59 vaccine adjuvant was associated with a decrease in influenza illness (Iob, A et al. (2005) Epidemiol Infect 133:687-693).
(§4) Rates of seroconversion 4 weeks after influenza vaccination were also evaluated. Seroconversion was defined as the change from a negative pre-vaccination titer (i.e., HI titer <1:10) to post-vaccination HI titer ≥1:40 or at least 4-fold increase from a non-negative (>1:10) pre-vaccination HI titer.

[2] = system: H3N2 A/Victoria/210/2009; assay: Hemagglutination inhibition titers after influenza vaccination, A/H3N2 vaccine strain; type: in vivo, human; details: for HI GMT ratio (CV %) A/H3N2: GMT at week 4 post vaccination/GMT at baseline
Description: as §1, §2, §3, §4

[3] = Baseline (2 weeks prior to influenza vaccination), RAD001 0.5 mg daily
[4] = Baseline (2 weeks prior to influenza vaccination), RAD001 5 mg weekly
[5] = Baseline (2 weeks prior to influenza vaccination), RAD001 20 mg weekly
[6] = Intention to Treat Population, 0.5 mg
[7] = Intention to Treat Population, 5 mg
[8] = Intention to Treat Population, 20 mg
[9] = Subjects with Baseline Titers <=40, 0.5 mg
[10] = Subjects with Baseline Titers <=40, 5 mg
[11] = Subjects with Baseline Titers <=40, 20 mg
[12] = Week 4 after influenza vaccination, RAD001 0.5 mg daily
[13] = Week 4 after influenza vaccination, RAD001 5 mg weekly
[14] = Week 4 after influenza vaccination, RAD001 20 mg weekly

CO[C@H]1C[C@@H]2CC[C@@H](C)[C@@](O)(O2)C(=O)C(=O)N2CCCC[C@H]2C(=O)O[C@H]([C@H](C)C[C@@H]2CC[C@@H](OCCO)[C@H](OC)C2)CC(=O)[C@H](C)/C=C(\C)[C@@H](O)[C@@H](OC)C(=O)[C@H](C)C[C@H](C)/C=C/C=C/C=C/1C [RAD001, (1R,9S,12S,15R,16E,18R,19R,21R,23S,24E,26E,28E,30S,32S,35R)-1,18-dihydroxy-12-{(1R)-2-[(1S,3R,4R)-4-(2-hydroxyethoxy)-3-methoxycyclohexyl]-1-methylethyl}-19,30-dimethoxy-15,17,21,23,29,35-hexamethyl-11,36-dioxa-4-azatricyclo[30.3.1.0^4,9]hexatriaconta-16,24,26,28-tetraene-2,3,10,14,20-pentaone]
HI GMT (CV %) A/H1N1 [1, 3]: 102.8 (186.9) | HI GMT (CV %) A/H1N1 [1, 4]: 84.2 (236.4) | HI GMT (CV %) A/H1N1 [1, 5]: 90.1 (188.4) | HI GMT ratio (CV %) A/H1N1 ([1]; RAD001 0.5 mg daily): 2.6 (302.5) | HI GMT ratio (CV %) A/H1N1 ([1]; RAD001 5 mg weekly): 2.5 (214.3) | HI GMT ratio (CV %) A/H1N1 ([1]; RAD001 20 mg weekly): 1.8 (201.5) | Percent of subjects with seroconversion to influenza 4 weeks after vaccination, H1N1 [1, 6]: 27% | Percent of subjects with seroconversion to influenza 4 weeks after vaccination, H1N1 [1, 7]: 27% | Percent of subjects with seroconversion to influenza 4 weeks after vaccination, H1N1 [1, 8]: 17% | Percent of subjects with seroconversion to influenza 4 weeks after vaccination, H1N1 [1, 9]: 42% | Percent of subjects with seroconversion to influenza 4 weeks after vaccination, H1N1 [1, 10]: 45% | Percent of subjects with seroconversion to influenza 4 weeks after vaccination, H1N1 [1, 11]: 36% | HI GMT (CV %) A/H1N1 [1, 12]: 190.2 (236.9) | HI GMT (CV %) A/H1N1 [1, 13]: 198.73(195.6) | HI GMT (CV %) A/H1N1 [1, 14]: 129.7 (175.9) | HI GMT (CV %) A/H3N2 [2, 3]: 106.8 (168.2) | HI GMT (CV %) A/H3N2 [2, 4]: 126.04 (162.6) | HI GMT (CV %) A/H3N2 [2, 5]: 137.1 (211.5) | HI GMT ratio (CV %) A/H3N2 ([2]; RAD001 0.5 mg daily): 2.1 (152.6) | HI GMT ratio (CV %) A/H3N2 ([2]; RAD001 5 mg weekly): 2.0 (189.2) | HI GMT ratio (CV %) A/H3N2 ([2]; RAD001 20 mg weekly): 2.1 (277.3) | Percent of subjects with seroconversion to influenza 4 weeks after vaccination, H3N2 [2, 6]: 27% | Percent of subjects with seroconversion to influenza 4 weeks after vaccination, H3N2 [2, 7]: 24% | Percent of subjects with seroconversion to influenza 4 weeks after vaccination, H3N2 [2, 8]: 25% | Percent of subjects with seroconversion to influenza 4 weeks after vaccination, H3N2 [2, 9]: 64% | Percent of subjects with seroconversion to influenza 4 weeks after vaccination, H3N2 [2, 10]: 53% | Percent of subjects with seroconversion to influenza 4 weeks after vaccination, H3N2 [2, 11]: 71% | HI GMT (CV %) A/H3N2 [2, 12]: 194.4 (129.1) | HI GMT (CV %) A/H3N2 [2, 13]: 223.0 (118.8) | HI GMT (CV %) A/H3N2 [2, 14]: 223.0 (163.6)
